# Measurements as given in paper PMC12154458, “High-Throughput Screens of Repurposing Hub and DOS Chemical Libraries Reveal Compounds with Novel and Potent Inhibitory Activity Against the Essential Non-Neuronal Acetylcholinesterase of Schistosoma mansoni (SmTAChE)” (International Journal of Molecular Sciences, 2025).
# Read-outs that look alike come from different tables or passages of the source.
# Key:
# rSmTAChE [1] = target: T1, rSmTAChE (Schistosoma mansoni, UniProt A0A3Q0KMM5); experiment: biochemical
# rSmTAChE [2] = target: T1, rSmTAChE; type: biochemical; conditions: for IC50: read-out: qAC50 (IC50), rSmTAChE
# [3] = target: recombinant human acetylcholinesterase, rHsAChE (Homo sapiens, UniProt P22303); experiment: biochemical
# [4] = read-out: qAC50 (IC50), rHsAChE
# [5] = dose response analysis of Drug Repurposing Hub hits against rHsAChE
# 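Wherever Inhibition (%) (Average) is given: mostly 20 µM final but a few compounds at 5 or 10 µM.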
# 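Wherever Inhibition (%) Replicate A is given: mostly 20 µM final but a few compounds at 5 or 10 µM.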
# 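Wherever Inhibition (%) Replicate B is given: mostly 20 µM final but a few compounds at 5 or 10 µM.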
# recombinant human acetylcholinesterase, rHsAChE, sequence (P22303 32-614): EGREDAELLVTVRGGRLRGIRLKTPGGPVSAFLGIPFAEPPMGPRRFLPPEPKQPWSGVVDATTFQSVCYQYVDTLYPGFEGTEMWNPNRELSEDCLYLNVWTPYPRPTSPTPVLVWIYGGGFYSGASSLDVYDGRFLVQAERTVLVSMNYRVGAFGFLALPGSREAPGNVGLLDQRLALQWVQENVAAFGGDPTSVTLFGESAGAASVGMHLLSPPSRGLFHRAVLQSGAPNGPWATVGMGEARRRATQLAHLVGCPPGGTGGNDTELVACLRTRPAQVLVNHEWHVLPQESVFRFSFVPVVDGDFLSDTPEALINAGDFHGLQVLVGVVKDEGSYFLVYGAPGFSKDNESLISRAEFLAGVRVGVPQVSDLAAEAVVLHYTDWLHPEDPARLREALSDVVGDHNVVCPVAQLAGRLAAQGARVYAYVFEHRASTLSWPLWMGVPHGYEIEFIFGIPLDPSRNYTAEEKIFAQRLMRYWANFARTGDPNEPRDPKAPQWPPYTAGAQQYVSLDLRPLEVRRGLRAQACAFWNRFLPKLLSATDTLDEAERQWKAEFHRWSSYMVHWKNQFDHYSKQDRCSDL
# T1 sequence (A0A3Q0KMM5 27-661 limits assumed): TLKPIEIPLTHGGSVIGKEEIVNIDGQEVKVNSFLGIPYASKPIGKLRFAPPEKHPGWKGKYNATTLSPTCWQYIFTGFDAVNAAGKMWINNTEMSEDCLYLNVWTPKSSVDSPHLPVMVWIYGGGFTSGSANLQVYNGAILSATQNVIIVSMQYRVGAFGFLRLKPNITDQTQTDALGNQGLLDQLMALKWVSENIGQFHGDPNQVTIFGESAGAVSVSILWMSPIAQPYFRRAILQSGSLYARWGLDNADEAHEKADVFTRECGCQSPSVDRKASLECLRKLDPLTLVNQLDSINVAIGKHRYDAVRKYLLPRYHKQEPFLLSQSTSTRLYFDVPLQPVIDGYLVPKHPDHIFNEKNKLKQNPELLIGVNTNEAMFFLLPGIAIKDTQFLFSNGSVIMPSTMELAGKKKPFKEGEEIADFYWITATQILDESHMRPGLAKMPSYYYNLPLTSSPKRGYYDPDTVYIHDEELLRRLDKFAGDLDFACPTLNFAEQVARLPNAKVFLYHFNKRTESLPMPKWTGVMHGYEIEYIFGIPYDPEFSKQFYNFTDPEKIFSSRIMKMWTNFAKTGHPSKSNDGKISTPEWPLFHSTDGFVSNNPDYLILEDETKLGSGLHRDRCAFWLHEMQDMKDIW
Structure (SMILES),Inhibition (%) (Average) (rSmTAChE [1]),Inhibition (%) Replicate A (rSmTAChE [1]) [%],Inhibition (%) Replicate B (rSmTAChE [1]) [%],"Data Mode (curve class), rSmTAChE (rSmTAChE [2])",IC50 (rSmTAChE [2]) [µM],"Data Mode (curve class), rHsAChE [3]",rSmTAChE Data Mode (rSmTAChE [2]),rHsAChE Data Mode [3],"IC50 [3, 4] [µM]","inhibition at 20 µM (rSmTAChE [1]; read-out: HTS/rSmTAChE Inhibition (Ave, %)) [%]",SI (Hs/Sm) (rSmTAChE [2]),"Data Mode (curve class), rHsAChE [3, 5]","inhibition at 20 µM (rSmTAChE [1]; read-out: rSmTAChE HTS Inhibition (Ave, %)) [%]",SI (Sm/Hs) [3],"IC50 ([3]; Table 3, read-out: IC50 (µM) rHsAChE) [µM]"
C[C@@H]1C[C@H]2[C@@H]3CCC4=CC(=O)C=C[C@]4(C)[C@@]3(Cl)[C@@H](O)C[C@]2(C)[C@@]1(OC(=O)c1ccco1)C(=O)CCl [BRD-K60640630-001-11-0],71.97,69.48,74.46,decreasing (weakly active),> 38,inactive,–,–,–,–,–,–,–,–,–
COc1ccc(C#Cc2ccc3c(c2)O[C@H](CN(C)S(=O)(=O)c2ccccc2F)[C@H](C)CN([C@H](C)CO)S3(=O)=O)cc1 [BRD-K13781734-001-02-4],66.73,61.49,71.97,–,–,–,decreasing (weakly active),inactive,–,–,–,–,–,–,–
CC(C)(C)c1ccc(CN2CCN(C(c3ccccc3)c3ccc(Cl)cc3)CC2)cc1 (centres unmarked) [BRD-A91444184-300-01-9],84.37,84.75,83.99,inactive,–,inactive,–,–,–,–,–,–,–,–,–
COc1ccc(C#Cc2ccc3c(c2)O[C@@H](CN(C)S(=O)(=O)c2ccccc2F)[C@@H](C)CN([C@H](C)CO)S3(=O)=O)cc1 [BRD-K67027685-001-01-8],71.37,69.23,73.51,–,–,–,inactive,inactive,–,–,–,–,–,–,–
CC(=O)c1cc([N+](=O)[O-])c(Sc2cccc(Cl)c2Cl)s1 [BRD-K13606314-001-01-3],73.95,72.57,75.33,inactive,–,decreasing (weakly active),–,–,> 38,–,–,–,–,–,–
Cc1cc(Oc2ccc3nc(COc4ccc(CC5SC(=O)NC5=O)cc4)n(C)c3c2)cc(C)c1N (centres unmarked) [BRD-A24560335-300-01-2],64.01,61.34,66.67,decreasing (weakly active),> 38,inactive,–,–,–,–,–,–,–,–,–
N#Cc1ccc(N2NC3=C(CCc4cc(C(=O)O)ccc43)[C@@H]2C2CCCC2)cc1Cl [BRD-K51041191-001-01-4],66.80,70.13,63.46,decreasing (weakly active),> 38,decreasing (weakly active),–,–,> 38,–,–,–,–,–,–
C[C@H]1[C@H](C)CC[C@]2(C(=O)O)CC[C@]3(C)C(=CC[C@@H]4[C@@]5(C)CC[C@H](O)C(C)(C)[C@@H]5CC[C@]43C)[C@H]12 [BRD-K68185022-001-14-8],75.09,74.28,75.90,decreasing (weakly active),> 38,inactive,–,–,–,–,–,–,–,–,–
"Cc1cc(Nc2ncc(Cl)c(Nc3ccccc3S(=O)(=O)C(C)C)n2)c(OC(C)C)cc1C1CCNCC1 [Ceritinib, reference compound]",–,–,–,decreasing,–,–,–,–,–,67,1.58,decreasing (weakly active),–,–,–
COC(=O)C1=C(C)NC(C)=C(C(=O)OC/C=C/c2ccccc2)C1c1cccc([N+](=O)[O-])c1 (centres unmarked) [BRD-A68083442-001-01-6],87.10,86.49,87.72,inactive,–,inactive,–,–,–,–,–,–,–,–,–
CCc1nc(-c2cccc(C)c2)c(-c2ccnc(NC(=O)c3ccccc3)c2)s1 [BRD-K52751261-001-08-7],70.66,75.76,65.56,inactive,–,decreasing (weakly active),–,–,> 6.8,–,–,–,–,–,–
O=C(C[C@@H]1C[C@@H]2c3cc(NC(=O)NC4CCCC4)ccc3O[C@@H]2[C@H](CO)O1)NCc1ccccc1F [BRD-K14652476-001-01-0],84.81,85.09,84.52,–,–,–,inactive,inactive,–,–,–,–,–,–,–
COC(=O)CCSCc1ccc(-c2onc(C)c2NC(=O)OC(C)c2ccccc2Cl)cc1 (centres unmarked) [BRD-A94323479-001-02-8],67.17,60.59,73.75,inactive,–,decreasing (weakly active),–,–,> 38,–,–,–,–,–,–
C=CCNc1nc(NCC=C)nc(N2CCN(C(c3ccc(F)cc3)c3ccc(F)cc3)CC2)n1 [BRD-K82677201-001-01-6],71.59,72.90,70.28,decreasing (weakly active),> 38,decreasing (weakly active),–,–,> 38,–,–,–,–,–,–
O=C(C[C@H]1C[C@H]2c3cc(NC(=O)NC4CCCC4)ccc3O[C@H]2[C@@H](CO)O1)NCc1ccccc1F [BRD-K64460391-001-01-9],88.85,89.69,88.02,–,–,–,decreasing (weakly active),inactive,–,–,–,–,–,–,–
NC(=O)N/N=C/c1ccc(Oc2ccc(F)cc2)cc1 [BRD-K70912147-001-01-8],75.84,80.22,71.46,inactive,–,inactive,–,–,–,–,–,–,–,–,–
"CCCCC(CC)CCC(CC(C)C)OS(=O)(=O)O (centres unmarked) [Sodium-tetradecyl-sulfate, reference compound]",–,–,–,decreasing,–,–,–,–,–,–,–,decreasing,74.7,2.01,5.66
C[C@]12CCC3c4ccc(O)cc4CCC3C1CC[C@@H]2OC(=O)CCC1CCCC1 (some centres unmarked) [BRD-A91452556-001-04-0],88.63,90.28,86.98,inactive,–,decreasing (weakly active),–,–,> 38,–,–,–,–,–,–
C[C@H](CO)N1C[C@H](C)[C@H](CN(C)S(=O)(=O)c2ccc(F)cc2)Oc2c(NC(=O)Nc3cccc4ccccc34)cccc2C1=O [BRD-K73245004-001-02-0],68.21,69.56,66.86,–,–,–,decreasing (weakly active),inactive,–,–,–,–,–,–,–
CC(C)(C#N)c1ccc(N2C(=O)OCc3cnc4ccc(-c5cnc6ccccc6c5)cc4c32)cc1 [BRD-K24556407-001-02-3],72.65,73.71,71.58,inactive,–,inactive,–,–,–,–,–,–,–,–,–
COc1ccc(NC(=O)Nc2ccc3c(c2)[C@@H]2C[C@H](CC(=O)NCc4ccccc4F)O[C@@H](CO)[C@@H]2O3)cc1 [BRD-K05329107-001-01-3],62.78,63.88,61.69,–,–,–,inactive,decreasing (weakly active),–,–,–,–,–,–,–
CCCCCCCCCCCCCCCC[N+](C)(C)C [BRD-K47079459-004-04-6],64.20,65.92,62.47,decreasing,17,decreasing,–,–,10.3,–,–,–,–,–,–
